This is an account of results in US20240368104A1, “Novel Dialkoxynaphtho[2,3-C]Furan-1(3H)-One Derivatives and Pharmaceutical Composition For Preventing or Treating Respiratory Disease or SARS-COV-2 Infection Disease, Comprising Same” (priority 2021, published 2024).

In general, IC50 refers to the point on the concentration scale where inhibition reaches its midpoint.

A short description of one data set: in vitro. As to conditions: African green monkey.
The next data set concerns SARS-COV-2. The experiment in a line: microbe, parasite or virus in culture. Type of data set: cell-based. Further details: SI (Selectivity Index, CC50/IC50): unit not given here. As to conditions: for SI (Selectivity Index, CC50/IC50): SARS-COV-2, values >50 assumed to be 50; for IC50: read-out: SARS-COV-2 inhibition (IC50).
The mark [1] stands for this setting: Severe acute respiratory syndrome coronavirus 2, Vero cells, 24 hours infection.
[2] abbreviates: Severe acute respiratory syndrome coronavirus 2, Vero, 24 h.

Structures can show the parent of a compound that is named as a salt. Where two headings read alike, the source gives them in different places.

Take `CCN(CC)c1ccc(-c2c3c(cc4cc(OC)c(OC)cc24)COC3=O)cc1` [Example 249, 9-(4-(diethylamino)phenyl)-6,7-dimethoxynaphtho[2,3-c]furan-1(3H)-one]: the CC50 in the data set “in vitro” was above 50 µM. Besides, the “SI (Selectivity Index, CC50/IC50)” value with SARS-COV-2 was 100.23. Besides, in the data set on SARS-COV-2 (setting [1]), the IC50 came out at 0.5 µM.
On the same counts, the results for `COc1cc2cc3c(c(-c4ccc(N(C)C(=O)C(C)(C)C)nc4)c2cc1OC)C(=O)OC3` [Example 233, N-(5-(6,7-dimethoxy-3-oxo-1,3-dihydronaphtho[2,3-c]furan-4-yl)pyridin-2-yl)-N-methylpivalamide] are above 50 µM, 1.00 and above 50 µM.
Consider `COc1cc2cc3c(c(-c4cncc(OC(C)C)c4)c2cc1OC)C(=O)OC3` [Example 200, 9-(5-isopropoxypyridin-3-yl)-6,7-dimethoxynaphtho[2,3-c]furan-1(3H)-one], for which the CC50 in “in vitro” was above 50 µM. Besides, the “SI (Selectivity Index, CC50/IC50)” value in the data set with SARS-COV-2 was 1.77. Also, the IC50 in the data set with SARS-COV-2 (setting [1]) was 28.2 µM.
The like results for `COc1cc2cc3c(c(-c4ccc5c(O)ccnc5c4C)c2cc1OC)C(=O)OC3` [Example 154, 9-(4-hydroxy-8-methylquinolin-7-yl)-6,7-dimethoxynaphtho[2,3-c]furan-1(3H)-one] were, in that order, above 50 µM, 1.0 and above 50 µM.
The like results for `COc1cc2cc3c(c(-c4ccc(N5CCOCC5)nn4)c2cc1OC)C(=O)OC3` [Example 219, 6,7-dimethoxy-9-(6-morpholinopyridazin-3-yl)naphtho[2,3-c]furan-1(3H)-one] were, in that order, above 50 µM, 1.00 and above 50 µM.
On the same counts, the results for `COc1cc2cc3c(c(-c4cnccn4)c2cc1OC)C(=O)OC3` [Example 32, 6,7-dimethoxy-9-(pyrazin-2-yl)naphtho[2,3-c]furan-1(3H)-one] are above 50 µM, 1.00 and above 50 µM.
In turn, `CCN(C)c1ncc(-c2c3c(cc4cc(OC)c(OC)cc24)COC3=O)cn1` [Example 106, 9-(2-(ethyl(methyl)amino)pyrimidin-5-yl)-6,7-dimethoxynaphtho[2,3-c]furan-1(3H)-one hydrochloride] registered a CC50 in “in vitro” above 50 µM. Moreover, the “SI (Selectivity Index, CC50/IC50)” value in the data set with SARS-COV-2 was found to be 297.58. For the same molecule, in the data set on SARS-COV-2 (setting [2]), the IC50 is 0.17 µM.
`COCCN(CCOC)c1ncc(-c2c3c(cc4cc(OC)c(OC)cc24)COC3=O)cn1` [Example 72, 9-(2-(bis(2-methoxyethyl)amino)pyrimidin-5-yl)-6,7-dimethoxynaphtho[2,3-c]furan-1(3H)-one] registered a CC50 in “in vitro” above 50 µM. For the same molecule, in the data set on SARS-COV-2, the “SI (Selectivity Index, CC50/IC50)” value worked out at 1.64. In addition, in the data set on SARS-COV-2 (setting [1]), the half-maximal inhibitory concentration (IC50) came out at 30.4 µM.
On the same counts, the results for `COc1cc2cc3c(c(-c4cnc5ccc(N6CCOCC6)nn45)c2cc1OC)C(=O)OC3` [Example 220, 6,7-dimethoxy-9-(6-morpholinoimidazo[1,2-b]pyridazin-3-yl)naphtho[2,3-c]furan-1(3H)-one] are above 50 µM, 1.00 and above 50 µM.
The like results for `COc1cc2cc3c(c(-c4ccc(C(F)(F)F)c5cccnc45)c2cc1OC)C(=O)OC3` [Example 119, 6,7-dimethoxy-9-(5-(trifluoromethyl)quinolin-8-yl)naphtho[2,3-c]furan-1(3H)-one] were, in that order, above 50 µM, 11.45 and 4.36 µM.
In “in vitro”, `COc1cc2cc3c(c(-c4cnc(NC5CCCC5)nc4)c2cc1OC)C(=O)OC3.Cl` [Example 91, 9-(2-(cyclopentylamino)pyrimidin-5-yl)-6,7-dimethoxynaphtho[2,3-c]furan-1(3H)-one hydrochloride] registered a CC50 above 50 µM. Also, in the data set with SARS-COV-2, the “SI (Selectivity Index, CC50/IC50)” value was 5.15. Besides, the IC50 with SARS-COV-2 (setting [2]) came out at 9.7 µM.
In “in vitro”, `COc1cc2cc3c(c(-c4ccnc(F)c4)c2cc1OC)C(=O)OC3` [Example 186, 9-(2-fluoropyridin-4-yl)-6,7-dimethoxynaphtho[2,3-c]furan-1(3H)-one] returned a CC50 above 50 µM. Also, the “SI (Selectivity Index, CC50/IC50)” value in the data set with SARS-COV-2 stood at 1.0. The IC50 with SARS-COV-2 (setting [1]) was above 50 µM.
In the data set “in vitro”, `COc1cc2cc3c(c(-c4cc5c(cc4OC(=O)[C@@H]4CCCN4)OCO5)c2cc1OC)C(=O)OC3` [Example 273, 6-(6,7-dimethoxy-3-oxo-1,3-dihydronaphtho[2,3-c]furan-4-yl)benzo[d][1,3]dioxol-5-yl L-prolinate] came in with a CC50 above 50 µM. Further, the “SI (Selectivity Index, CC50/IC50)” value with SARS-COV-2 turned out to be 36.52. Besides, the IC50 in the data set with SARS-COV-2 (setting [1]) was found to be 1.37 µM.
In turn, `CCN(CCO)c1ncc(-c2c3c(cc4cc(OC)c(OC)cc24)COC3=O)cn1.Cl` [Example 81, 9-(2-(ethyl(2-hydroxyethyl)amino)pyrimidin-5-yl)-6,7-dimethoxynaphtho[2,3-c]furan-1(3H)-one hydrochloride] had a CC50 in the data set “in vitro” above 50 µM. The “SI (Selectivity Index, CC50/IC50)” value with SARS-COV-2 came out at 2.43. For the same molecule, the IC50 with SARS-COV-2 (setting [2]) worked out at 20.6 µM.
The molecule `COc1cc2cc3c(c(-c4ccc(N(C)c5ncn(C)n5)nc4)c2cc1OC)C(=O)OC3` [Example 206, 6,7-dimethoxy-9-(6-(methyl(1-methyl-1H-1,2,4-triazol-3-yl)amino)pyridin-3-yl)naphtho[2,3-c]furan-1(3H)-one] yielded a CC50 in the data set “in vitro” above 50 µM. The “SI (Selectivity Index, CC50/IC50)” value with SARS-COV-2 was determined as 2.79. In addition, in the data set with SARS-COV-2 (setting [1]), the IC50 is 17.9 µM.
In turn, `COc1cc2cc3c(c(-c4ccc(N5CCC(N(C)C)CC5)nc4)c2cc1OC)C(=O)OC3.Cl` [Example 238, 9-(6-(4-(dimethylamino)piperidin-1-yl)pyridin-3-yl)-6,7-dimethoxynaphtho[2,3-c]furan-1(3H)-one] came in with a CC50 in “in vitro” above 50 µM. For the same molecule, the “SI (Selectivity Index, CC50/IC50)” value in the data set with SARS-COV-2 is 2.84. Moreover, the IC50 with SARS-COV-2 (setting [2]) was determined as 17.6 µM.
On to `COc1cc2cc3c(c(-c4cnc(N(C)C)cn4)c2cc1OC)C(=O)OC3` [Example 31, 9-(5-(dimethylamino)pyrazin-2-yl)-6,7-dimethoxynaphtho[2,3-c]furan-1(3H)-one], for which the CC50 in the data set “in vitro” is above 50 µM. Besides, the “SI (Selectivity Index, CC50/IC50)” value in the data set with SARS-COV-2 is reported as 11.86. The IC50 in the data set on SARS-COV-2 (setting [1]) came to 4.22 µM.
The like results for `COc1cc2cc3c(c(-c4cc5c(cc4OC(=O)OC4CCCCC4)OCO5)c2cc1OC)C(=O)OC3` [Example 99, cyclohexyl (6-(6,7-dimethoxy-3-oxo-1,3-dihydronaphtho[2,3-c]furan-4-yl)benzo[d][1,3]dioxol-5-yl)carbonate] were, in that order, above 50 µM, 8.70 and 5.75 µM.
On to `COc1cc2cc3c(c(-c4cnc(N5CCC[C@@H]5CO)nc4)c2cc1OC)C(=O)OC3.Cl` [Example 82, (R)-9-(2-(2-(hydroxymethyl)pyrrolidin-1-yl)pyrimidin-5-yl)-6,7-dimethoxynaphtho[2,3-c]furan-1(3H)-one hydrochloride], for which the CC50 in “in vitro” was above 50 µM. Besides, the “SI (Selectivity Index, CC50/IC50)” value in the data set on SARS-COV-2 was found to be 3.93. Moreover, the IC50 in the data set on SARS-COV-2 (setting [2]) came to 12.7 µM.
The molecule `CCN(Cc1cccnc1)c1ccc(-c2c3c(cc4cc(OC)c(OC)cc24)COC3=O)cc1` [Example 254, 9-(4-(ethyl(pyridin-3-ylmethyl)amino)phenyl)-6,7-dimethoxynaphtho[2,3-c]furan-1(3H)-one] gave a CC50 in “in vitro” above 50 µM. Further, the “SI (Selectivity Index, CC50/IC50)” value in the data set with SARS-COV-2 is on record as 12.17. The IC50 with SARS-COV-2 (setting [1]) was 4.11 µM.
In “in vitro”, `COc1cc2cc3c(c(-c4cnc(/N=C\CN(C)C)cn4)c2cc1OC)C(=O)OC3` [Example 29, (Z)-9-(5-((2-(dimethylamino)ethyliden)amino)pyrazin-2-yl)-6,7-dimethoxynaphtho[2,3-c]furan-1(3H)-one] displayed a CC50 above 50 µM. Besides, the “SI (Selectivity Index, CC50/IC50)” value in the data set on SARS-COV-2 is reported as 1.00. Also, the IC50 in the data set on SARS-COV-2 (setting [1]) was above 50 µM.
In turn, `COc1cc2c(OC)c3c(c(-c4ccc(N(C)C5Cc6ccccc6C5)nc4)c2cc1OC)COC3=O.Cl` [Example 268, 4-(6-((2,3-dihydro-1H-indan-2-yl)(methyl)amino)pyridin-3-yl)-6,7,9-trimethoxynaphtho[2,3-c]furan-1(3H)-one] returned a CC50 in the data set “in vitro” above 50 µM. Besides, the “SI (Selectivity Index, CC50/IC50)” value with SARS-COV-2 amounted to 1.00. For the same molecule, in the data set on SARS-COV-2 (setting [2]), the IC50 was above 50 µM.
`COc1cc2cc3c(c(-c4ccc(N5CCOCC5)cc4)c2cc1OC)C(=O)OC3.Cl` [Example 245, 6,7-dimethoxy-9-(4-morpholinophenyl)naphtho[2,3-c]furan-1(3H)-one] showed a CC50 in “in vitro” above 50 µM. The “SI (Selectivity Index, CC50/IC50)” value in the data set on SARS-COV-2 stood at 1.00. Moreover, the IC50 in the data set on SARS-COV-2 (setting [2]) is above 50 µM.
`COc1cc2cc3c(c(-c4cnc(N(C)Cc5ccc(C)o5)nc4)c2cc1OC)C(=O)OC3` [Example 103, 6,7-dimethoxy-9-(2-(methyl((5-methylfuran-2-yl)methyl)amino)pyrimidin-5-yl)naphtho[2,3-c]furan-1(3H)-one hydrochloride] showed a CC50 in the data set “in vitro” above 50 µM. Moreover, the “SI (Selectivity Index, CC50/IC50)” value in the data set on SARS-COV-2 was 175.17. Besides, in the data set on SARS-COV-2 (setting [2]), the IC50 came to 0.29 µM.
Consider `COc1cc2cc3c(c(-c4ccc(N(C)C)nc4)c2cc1OC)C(=O)OC3` [Example 163, 9-(6-(dimethylamino)pyridin-3-yl)-6,7-dimethoxynaphtho[2,3-c]furan-1(3H)-one], for which the CC50 in the data set “in vitro” is above 50 µM. Besides, the “SI (Selectivity Index, CC50/IC50)” value in the data set with SARS-COV-2 is given as 885.42. Further, the IC50 in the data set with SARS-COV-2 (setting [1]) was 0.06 µM.
Regarding `COCCN(CCOC)c1ccc(-c2c3c(cc4cc(OC)c(OC)cc24)COC3=O)cn1` [Example 174, 9-(6-(bis(2-methoxyethyl)amino)pyridin-3-yl)-6,7-dimethoxynaphtho[2,3-c]furan-1(3H)-one], the CC50 in “in vitro” is above 50 µM. Moreover, in the data set on SARS-COV-2, the “SI (Selectivity Index, CC50/IC50)” value was 2.62. Also, the IC50 with SARS-COV-2 (setting [1]) worked out at 19.1 µM.
`COc1cc2cc3c(c(-c4ccc(N(C)c5ccc(C#N)cc5)nc4)c2cc1OC)C(=O)OC3.Cl` [Example 218, 4-((5-(6,7-dimethoxy-3-oxo-1,3-dihydronaphtho[2,3-c]furan-4-yl)pyridin-2-yl)(methyl)amino)benzonitrile]: the CC50 in the data set “in vitro” is above 50 µM. The “SI (Selectivity Index, CC50/IC50)” value with SARS-COV-2 is listed as 65.75. In addition, the IC50 in the data set on SARS-COV-2 (setting [2]) is 0.76 µM.
